Laboratory results published in PMC5520944 (Cell Death & Disease, 2017).
Structures can show the parent of a compound that is named as a salt. Where two headings read alike, the source gives them in different places.

Assays:
[1] = tested on: L929sAhFas; test: cells; set-up: high-content necroptosis screen, percentage PI-positive nuclei as percent of DMSO plus stimulus control
Source text: To identify novel inhibitors or regulators of necroptosis, 500 small compounds from libraries targeting autophagy, kinases, phosphatases, proteases and redox balance were screened for their ability to block TNF-induced necroptosis in murine L929sAhFas cells. Three conditions were used to induce necroptosis in L929 cells: TNF alone, TNF+TAK1 inhibitor (TAK1i) and TNF+zVAD-fmk, a pan-caspase inhibitor. Inhibition of TAK1 or caspases sensitizes to necroptosis.[13], [32] Necroptosis, measured as the percentage of PI-positive nuclei normalized to the plate-specific DMSO control, was determined for each compound (Supplementary Figure 1A). […] After compound treatment, L929sAhFas (a) or L929 (b) cells were stimulated with mTNF (T), mTNF+Tak1i (TiT) or mTNF+zVAD (zVT) (Supplementary Figure 1A and B). (a) Cell death percentage (% PI-positive nuclei) or cell loss was calculated as percent of control (DMSO+stimulus). […] (b) Cell loss (luminescence-based readout for ATP) was calculated as percent of control (DMSO+stimulus). […] In stimulated conditions, % PI-positive nuclei was determined as % of DMSO control. Data represent mean values±S.E.M. of two independent experiments. Cells were stained with Hoechst and PI and percentage PI-positive nuclei was determined using high-content image analysis (BD pathway Bioimager). (d) L929sAhFas cells were treated with Sorafenib (concentration as indicated) for 24 h. Then, stimulus was removed, 50 cells/condition seeded and colonies counted with crystal violet staining after 10 days incubation. […] Schemes of workflow screening assays in L929 cell lines. (A) Scheme of the workflow of a high-content screening assay on L929sAhFas cells using mTNF (T) and mTNF+Tak1i ((5Z)-7-Oxozeaenol) (TiT) to induce necroptotic cell death. Nec-1 and zVAD-fmk were used as protective and sensitizing benchmarks, respectively, on all plates. (B) Scheme of the workflow of a CellTiter-Glo luminescent cell viability screening assay on L929 cells using mTNF+zVAD (zVT) to induce necroptotic cell death. Supplementary Figure S2. Z’ calculation for cell death screening assays in L929 cells. (A) Z’ calculation for cell death screening assay (Fig. 1A) in mTNF-stimulated L929sAhFas cells. (B) Z’ calculation for cell death screening assay (Fig. 1A) in L929sAhFas cells stimulated with mTNF + Taki.

[2] = tested on: L929sAhFas; test: cells; set-up: high-content necroptosis screen, percentage PI-positive nuclei as percent of DMSO plus stimulus control; settings: mTNF-induced cell death, validation screen; read-out: Validation screen IC50 (µM) (TNF)
Source text: To identify novel inhibitors or regulators of necroptosis, 500 small compounds from libraries targeting autophagy, kinases, phosphatases, proteases and redox balance were screened for their ability to block TNF-induced necroptosis in murine L929sAhFas cells. Three conditions were used to induce necroptosis in L929 cells: TNF alone, TNF+TAK1 inhibitor (TAK1i) and TNF+zVAD-fmk, a pan-caspase inhibitor. Inhibition of TAK1 or caspases sensitizes to necroptosis.[13], [32] Necroptosis, measured as the percentage of PI-positive nuclei normalized to the plate-specific DMSO control, was determined for each compound (Supplementary Figure 1A). Z’ values for the TNF- and TNF+TAK1i-induced cell death assay were 0.498 and 0.919, respectively (Supplementary Figures 2A and B), indicating good assay performance. Sorafenib was identified as an effective inhibitor of both TNF- and TNF+TAK1i-induced necroptosis (Figure 1a). […] In an independent screening with 437 FDA-approved drugs and TNF+zVAD-fmk as necroptosis trigger in L929 cells (Supplementary Figure 1B), Sorafenib was also shown to be a potent inhibitor (Figure 1b). […] After compound treatment, L929sAhFas (a) or L929 (b) cells were stimulated with mTNF (T), mTNF+Tak1i (TiT) or mTNF+zVAD (zVT) (Supplementary Figure 1A and B). (a) Cell death percentage (% PI-positive nuclei) or cell loss was calculated as percent of control (DMSO+stimulus). Green points marked by the green dotted line represent a selection of kinase inhibitors from the screening on L929sAhFas cells (Supplementary Table 1), that are only slightly protective in the TNF-stimulated condition. (b) Cell loss (luminescence-based readout for ATP) was calculated as percent of control (DMSO+stimulus). […] In stimulated conditions, % PI-positive nuclei was determined as % of DMSO control. Data represent mean values±S.E.M. of two independent experiments. Cells were stained with Hoechst and PI and percentage PI-positive nuclei was determined using high-content image analysis (BD pathway Bioimager). (d) L929sAhFas cells were treated with Sorafenib (concentration as indicated) for 24 h. Then, stimulus was removed, 50 cells/condition seeded and colonies counted with crystal violet staining after 10 days incubation. Quantification was performed using ImageJ. n=2, a representative experiment is shown Legends supplementary figures Supplementary Figure S1. Schemes of workflow screening assays in L929 cell lines. (A) Scheme of the workflow of a high-content screening assay on L929sAhFas cells using mTNF (T) and mTNF+Tak1i ((5Z)-7-Oxozeaenol) (TiT) to induce necroptotic cell death. Nec-1 and zVAD-fmk were used as protective and sensitizing benchmarks, respectively, on all plates. (B) Scheme of the workflow of a CellTiter-Glo luminescent cell viability screening assay on L929 cells using mTNF+zVAD (zVT) to induce necroptotic cell death. Supplementary Figure S2. Z’ calculation for cell death screening assays in L929 cells. (A) Z’ calculation for cell death screening assay (Fig. 1A) in mTNF-stimulated L929sAhFas cells. (B) Z’ calculation for cell death screening assay (Fig. 1A) in L929sAhFas cells stimulated with mTNF + Taki.

## CNC(=O)c1cc(Oc2ccc(NC(=O)Nc3ccc(Cl)c(C(F)(F)F)c3)cc2)ccn1 [Sorafenib tosylate]
[1]; read-out: cell death TNF (POC)
  activity at 10 µM: 41.5%
[1]; read-out: cell death TNF/Taki (POC)
  activity at 10 µM: 11.8%
[2]
  IC50: 3.25 µM
